Data as given in ChEMBL document CHEMBL4627246, “Pyroglutamide-Based P2X7 Receptor Antagonists Targeting Inflammatory Bowel Disease” (J Med Chem, 2020).

How the values were obtained:
Type in all cases: cell-based
[1] = system: SK-MEL-2; assay: Cytotoxicity against human SK-MEL-2 cells assessed as effect on cell growth at 10 uM incubated for 48 hrs by sulforhodamine B assay; settings: sk-mel-2, 48 h
[2] = system: HCT-116; assay: Cytotoxicity against human HCT116 cells assessed as effect on cell growth at 10 uM incubated for 48 hrs by sulforhodamine B assay; settings: hct-116, 48 h
[3] = system: T47D; assay: Cytotoxicity against human T47D cells assessed as effect on cell growth at 10 uM incubated for 48 hrs by sulforhodamine B assay
[4] = system: RXF 393; assay: Cytotoxicity against human RXF393 cells assessed as effect on cell growth at 10 uM incubated for 48 hrs by sulforhodamine B assay; settings: rxf 393, 48 h
[5] = system: DU-145; assay: Cytotoxicity against human DU145 cells assessed as effect on cell growth at 10 uM incubated for 48 hrs by sulforhodamine B assay; settings: du-145, 48 h
[6] = system: MDA-MB-435; assay: Cytotoxicity against human MDA-MB-435 cells assessed as effect on cell growth at 10 uM incubated for 48 hrs by sulforhodamine B assay; settings: mda-mb-435, 48 h
[7] = system: SNB-19; assay: Cytotoxicity against human SNB19 cells assessed as effect on cell growth at 10 uM incubated for 48 hrs by sulforhodamine B assay; settings: snb-19, 48 h
[8] = system: OVCAR-5; assay: Cytotoxicity against human OVCAR5 cells assessed as effect on cell growth at 10 uM incubated for 48 hrs by sulforhodamine B assay; settings: ovcar-5, 48 h
[9] = system: MDA-MB-468; assay: Cytotoxicity against human MDA-MB-468 cells assessed as effect on cell growth at 10 uM incubated for 48 hrs by sulforhodamine B assay; settings: mda-mb-468, 48 h
[10] = system: A498; assay: Cytotoxicity against human A498 cells assessed as effect on cell growth at 10 uM incubated for 48 hrs by sulforhodamine B assay; settings: a498, 48 h
[11] = system: UACC-62; assay: Cytotoxicity against human UACC62 cells assessed as effect on cell growth at 10 uM incubated for 48 hrs by sulforhodamine B assay; settings: uacc-62, 48 h
[12] = system: OVCAR-3; assay: Cytotoxicity against human OVCAR3 cells assessed as effect on cell growth at 10 uM incubated for 48 hrs by sulforhodamine B assay; settings: ovcar-3, 48 h
[13] = system: TK-10; assay: Cytotoxicity against human TK10 cells assessed as effect on cell growth at 10 uM incubated for 48 hrs by sulforhodamine B assay; settings: tk-10, 48 h
[14] = system: HCC 2998; assay: Cytotoxicity against human HCC2998 cells assessed as effect on cell growth at 10 uM incubated for 48 hrs by sulforhodamine B assay; settings: hcc 2998, 48 h
[15] = system: UO-31; assay: Cytotoxicity against human UO31 cells assessed as effect on cell growth at 10 uM incubated for 48 hrs by sulforhodamine B assay; settings: uo-31, 48 h
[16] = system: MCF7; assay: Cytotoxicity against human MCF7 cells assessed as effect on cell growth at 10 uM incubated for 48 hrs by sulforhodamine B assay; settings: mcf7, 48 h
[17] = system: HT-29; assay: Cytotoxicity against human HT-29 cells assessed as effect on cell growth at 10 uM incubated for 48 hrs by sulforhodamine B assay; settings: ht-29, 48 h
[18] = system: 786-0; assay: Cytotoxicity against human 786-0 cells assessed as effect on cell growth at 10 uM incubated for 48 hrs by sulforhodamine B assay; settings: 786-0, 48 h
[19] = system: OVCAR-8; assay: Cytotoxicity against human OVCAR8 cells assessed as effect on cell growth at 10 uM incubated for 48 hrs by sulforhodamine B assay; settings: ovcar-8, 48 h
[20] = system: SF-539; assay: Cytotoxicity against human SF539 cells assessed as effect on cell growth at 10 uM incubated for 48 hrs by sulforhodamine B assay; settings: sf-539, 48 h

Measured: Activity

O=C(NCc1ccc(Cl)cc1Cl)[C@@H]1CCC(=O)N1C(c1ccccc1)c1ccccc1
Non-Toxic: all assays above

COc1ccc(NC(=O)[C@@H]2C/C(=C\N(C)C)C(=O)N2)cc1
Non-Toxic: all assays above

Cc1ccc(NC(=O)[C@@H]2CCC(=O)N2c2ccccc2)cc1
Non-Toxic: all assays above

O=C1N[C@H](C(=O)NCc2ccc(Cl)cc2Cl)C/C1=N\O (stereo in doubt)
Non-Toxic: all assays above

N#Cc1ccc(N2C(=O)CC[C@H]2C(=O)NCc2ccc(Cl)cc2Cl)cc1
Non-Toxic: all assays above

CN(C)/C=C1\C[C@@H](C(=O)NCc2ccc(Cl)cc2Cl)N(c2cccs2)C1=O
Non-Toxic: all assays above

O=C(NCc1ccc(Cl)cc1Cl)[C@@H]1CCC(=O)N1c1ccc(Cl)cc1Cl
Non-Toxic: all assays above

COc1cc(CN/C=C2\C[C@@H](C(=O)NCc3ccc(Cl)cc3Cl)NC2=O)cc(OC)c1OC
Non-Toxic: all assays above

O=C(NCc1ccccc1)[C@@H]1CCC(=O)N1Cc1ccc(Cl)cc1Cl
Non-Toxic: all assays above
